Format in all cases: in vitro ADME
Data set [1] in a line: Kinetics of NAF enantiomer glucuronidation by human kidney microsomes. The conditions noted are these: human, human kidney microsomes, pH 7.5; NAF glucuronidation by HKM. How it is done: (§1) All glucuronidation assays were conducted in an incubation volume of 200 μL. Incubations were performed at 37°C in 50 mM Tris–HCl buffer (pH 7.5) with 10 mM magnesium chloride, 1 mg protein/mL of enzyme (microsomes and recombinant human UGTs), alamethicin (100 μg of alamethicin/mg microsomal protein), and NAF enantiomers (2.5–80 μM). The reaction was initiated by the addition of UDPGA (5 mM) and incubated at 37°C in a shaking water bath for 45 min. The reaction was terminated by the addition of 200 μL of ice-cold acetonitrile containing the IS (1 μM) and then centrifuged at 5000 ×g for 10 min at 4°C. The supernatant fraction was injected into the RRLC-MS/MS apparatus. Protein concentration (0.5–2 mg/mL) and incubation time (15–180 min) were optimized in preliminary studies to be within initial linear rate conditions.
(§2) Kinetic parameters were assessed in the HLM, RLM, HKM, RKM, and recombinant human UGTs (UGT2B4, 2B7, and 1A9).

The test system of data set [2] is human kidney microsomes (HKM). The description is as above. The procedure:
as §1, §2

The target of the next data set is T1, UGT1A1 (Homo sapiens, UniProt P22309).
T1 construct: purchased BD Gentest
T1 sequence (P22309 26-533): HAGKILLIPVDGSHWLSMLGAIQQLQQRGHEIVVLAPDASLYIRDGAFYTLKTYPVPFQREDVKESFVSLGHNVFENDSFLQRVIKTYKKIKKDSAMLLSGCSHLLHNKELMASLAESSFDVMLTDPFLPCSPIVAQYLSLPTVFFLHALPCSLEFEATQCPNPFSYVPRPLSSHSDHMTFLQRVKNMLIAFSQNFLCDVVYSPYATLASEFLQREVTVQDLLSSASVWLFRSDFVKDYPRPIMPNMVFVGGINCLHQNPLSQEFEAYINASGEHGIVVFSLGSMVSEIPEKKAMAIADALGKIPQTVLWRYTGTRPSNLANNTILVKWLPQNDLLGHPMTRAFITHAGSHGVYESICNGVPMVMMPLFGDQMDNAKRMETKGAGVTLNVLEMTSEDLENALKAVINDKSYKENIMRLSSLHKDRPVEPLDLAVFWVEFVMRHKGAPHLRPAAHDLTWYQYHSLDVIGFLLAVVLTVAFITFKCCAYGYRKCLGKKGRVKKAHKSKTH
Nature of the data set: Inhibition screening of recombinant UGTs by NAF enantiomers, UGT1A1 (4-MU). The conditions noted are these: recombinant UGT1A1, probe 4-MU, 10 μM NAF enantiomer, read-out: Inhibition of 4-MU-G formation. The procedure: (§3) The inhibition screening study was performed by investigating the 12 recombinant UGTs with 10 and 100 μM NAF enantiomer. […] 4-MU, as a non-specific substrate, was added to the other incubated samples. Instead of NAF enantiomers, the same volume of water was added to be the control sample. […] The formation of 4-MU-G and TFP-G produced from the 12 incubation system were analyzed by HPLC. The instrument parameters for the LC were as follows: system, Agilent 1260; Agilent Eclipse Plus C18 (2.1 mm × 50 mm, 1.8 μm, Santa Clara, CA, United States); mobile phase, methanol: 0.1% formic acid in water (0–3 min, 35:65; 3.1–4.5 min, 65:35; 4.6–5 min, 35:65); flow rate, 0.4 mL/min; column temperature, 25°C; and injection volume, 2 μL. The retention times of 4-MU, 4-MU-G, TFP, TFP-G, and MU (IS) were 1.5, 0.5, 2.2, 1.8, and 1.0 min, respectively.

For the next data set, the target named is T2, UGT2B15 (Homo sapiens, UniProt P54855).
T2 construct: purchased BD Gentest
T2 sequence (P54855 24-530): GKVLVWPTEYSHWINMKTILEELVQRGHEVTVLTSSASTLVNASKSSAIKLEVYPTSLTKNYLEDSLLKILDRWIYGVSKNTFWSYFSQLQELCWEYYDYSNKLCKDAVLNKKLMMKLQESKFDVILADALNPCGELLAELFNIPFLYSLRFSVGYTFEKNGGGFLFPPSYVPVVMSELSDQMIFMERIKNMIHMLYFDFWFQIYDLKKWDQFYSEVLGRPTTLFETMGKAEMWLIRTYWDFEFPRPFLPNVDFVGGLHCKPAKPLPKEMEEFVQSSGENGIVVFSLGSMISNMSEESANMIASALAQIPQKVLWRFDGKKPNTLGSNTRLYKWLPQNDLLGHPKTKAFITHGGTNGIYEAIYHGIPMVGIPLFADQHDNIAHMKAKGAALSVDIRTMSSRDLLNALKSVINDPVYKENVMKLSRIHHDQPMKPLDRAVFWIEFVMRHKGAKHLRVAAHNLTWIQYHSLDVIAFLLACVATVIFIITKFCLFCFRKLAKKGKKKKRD
Put plainly: Inhibition screening of recombinant UGTs by NAF enantiomers, UGT2B15 (4-MU). The note with it: recombinant UGT2B15, probe 4-MU, 100 μM NAF enantiomer, read-out: Inhibition of 4-MU-G formation. The procedure:
as §3

The target in the next data set is T3, UGT2B17 (Homo sapiens, UniProt O75795).
T3 construct: purchased BD Gentest
T3 sequence (O75795 24-530): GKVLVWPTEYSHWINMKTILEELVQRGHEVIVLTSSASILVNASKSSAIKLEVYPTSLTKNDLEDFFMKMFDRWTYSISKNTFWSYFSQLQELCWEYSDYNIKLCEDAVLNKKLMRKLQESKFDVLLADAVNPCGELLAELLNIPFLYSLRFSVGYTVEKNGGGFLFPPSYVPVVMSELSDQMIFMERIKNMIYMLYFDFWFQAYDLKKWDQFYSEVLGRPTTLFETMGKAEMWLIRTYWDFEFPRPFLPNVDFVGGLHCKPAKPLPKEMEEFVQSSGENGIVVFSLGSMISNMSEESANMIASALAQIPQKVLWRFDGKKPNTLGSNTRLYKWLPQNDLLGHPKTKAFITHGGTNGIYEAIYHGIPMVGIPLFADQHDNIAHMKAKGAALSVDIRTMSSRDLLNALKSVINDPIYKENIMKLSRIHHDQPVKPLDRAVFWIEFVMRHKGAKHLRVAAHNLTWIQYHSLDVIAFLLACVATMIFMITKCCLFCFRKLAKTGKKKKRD
Nature of the data set: Inhibition screening of recombinant UGTs by NAF enantiomers, UGT2B17 (4-MU). The conditions noted are these: recombinant UGT2B17, probe 4-MU, 100 μM NAF enantiomer, read-out: Inhibition of 4-MU-G formation. How it is done:
as §3

Bounds are passed on as bounds.

As for `COc1ccccc1N1CCN(C[C@@H](O)COc2cccc3ccccc23)CC1` [R(+)-NAF], the Km (usually the concentration of substrate that gives half-maximal velocity) at 45 min in data set [1] stood at 40 µM. In addition, the Kinetics type entry in data set [2] is “Michaelis–Menten model”. On UGT1A1, the inhibition (usually the drop in the measured response relative to a control, in per cent) at 10 μM was over 50%. The inhibition at 100 μM on UGT2B15 and at UGT2B17 was over 75% in each case.
With `COc1ccccc1N1CCN(C[C@H](O)COc2cccc3ccccc23)CC1` [S(-)-NAF], in data set [1], the Km at 45 min was 35 µM. Also, the Kinetics type result in data set [2] is “substrate inhibition model”. Moreover, the inhibition at 10 μM on UGT1A1 was over 50%. The inhibition at 100 μM on UGT2B15 and at UGT2B17 was over 75% throughout.
